Tests used:
[1] = xn = mol fraction of the nth substance listed; conditions: 298.15 K, 101 kPa, Liquid
[2] = excess molar enthalpy (molar enthalpy of mixing); xn = mol fraction of the nth substance listed; conditions: 298.15 K, 101 kPa, Liquid, Calvet calorimetry

ClCCCCCCCl [1,6-dichlorohexane] + CCCCOC=O
Conditions	excess molar enthalpy [kcal/mol]	mass density [kg/m3]
[1], x2 = 0.074	–	1053.56
[1], x2 = 0.1444	–	1043.66
[1], x2 = 0.2217	–	1032.43
[1], x2 = 0.2795	–	1023.76
[1], x2 = 0.3441	–	1013.82
[1], x2 = 0.4081	–	1003.67
[1], x2 = 0.5278	–	983.77
[1], x2 = 0.586	–	973.68
[1], x2 = 0.641	–	963.84
[1], x2 = 0.702	–	952.63
[1], x2 = 0.7544	–	942.71
[1], x2 = 0.856	–	922.68
[1], x2 = 0.9056	–	912.53
[1], x2 = 0.9528	–	902.59
[2], x2 = 0.095	0.006	–
[2], x2 = 0.1874	0.00985	–
[2], x2 = 0.2768	0.0102	–
[2], x2 = 0.3583	0.00722	–
[2], x2 = 0.4321	0.00131	–
[2], x2 = 0.4949	-0.00696	–
[2], x2 = 0.5195	-0.00906	–
[2], x2 = 0.5526	-0.0129	–
[2], x2 = 0.566	-0.0141	–
[2], x2 = 0.616	-0.0186	–
[2], x2 = 0.6674	-0.0208	–
[2], x2 = 0.7246	-0.0205	–
[2], x2 = 0.7832	-0.0183	–
[2], x2 = 0.8346	-0.0157	–
[2], x2 = 0.892	-0.0102	–
[2], x2 = 0.9474	-0.0059	–

ClCCCCl [1,3-dichloropropane] + CCOC=O
Conditions	excess molar enthalpy [kcal/mol]	mass density [kg/m3]
[1], x2 = 0.0758	–	1161.82
[1], x2 = 0.1392	–	1147.48
[1], x2 = 0.2059	–	1132.04
[1], x2 = 0.2686	–	1117.5
[1], x2 = 0.336	–	1101.45
[1], x2 = 0.3983	–	1086.31
[1], x2 = 0.4584	–	1071.44
[1], x2 = 0.5183	–	1056.42
[1], x2 = 0.5752	–	1041.98
[1], x2 = 0.6319	–	1027.35
[1], x2 = 0.6884	–	1012.54
[1], x2 = 0.7433	–	997.87
[1], x2 = 0.7967	–	983.56
[1], x2 = 0.849	–	969.23
[1], x2 = 0.9005	–	954.87
[1], x2 = 0.949	–	941.1
[2], x2 = 0.1171	0.00817	–
[2], x2 = 0.2311	0.0165	–
[2], x2 = 0.3403	0.0202	–
[2], x2 = 0.435	0.0196	–
[2], x2 = 0.5147	0.0165	–
[2], x2 = 0.5813	0.0124	–
[2], x2 = 0.6354	0.00894	–
[2], x2 = 0.682	0.00588	–
[2], x2 = 0.7186	0.00296	–
[2], x2 = 0.7381	-0.0037	–
[2], x2 = 0.7773	-0.00679	–
[2], x2 = 0.8208	-0.0092	–
[2], x2 = 0.8622	-0.0105	–
[2], x2 = 0.9018	-0.00858	–
[2], x2 = 0.9383	-0.00452	–
[2], x2 = 0.9723	-0.000287	–

Source: the NIST ThermoML archive (doi:10.1016/j.jct.2006.10.008)
